Values quoted from earlier work as cited in PMC9088800, “Expanded LUXendin Color Palette for GLP1R Detection and Visualization In Vitro and In Vivo” (JACS Au, 2022).

Conditions: phase III trials, combined with lifestyle interventions
Source text: The glucagon-like peptide-1 receptor (GLP1R) is a class B G protein-coupled receptor involved in the regulation of glucose homeostasis, food intake, and inflammation.[1],[2] As such, GLP1R agonist (GLP1RA) therapy has become a mainstay of type-2 diabetes treatment during the past decade, with a number of drugs on the market based upon stabilized analogues of glucagon-like peptide-1.[3] Most recently, phase III trials of the third-generation semaglutide have shown a ∼15% reduction in body weight when combined with lifestyle interventions,[4] leading to the approval of GLP1RAs as the first nonsu ...

semaglutide
Reduction in body weight: ~15%
